In patent US11058676B2, “Quinolinone lysyl oxidase-like 2 inhibitors and uses thereof” (PHARMAKEA, INC., priority 2016, dated 2021):

System: C57Bl/6 male mice
Assay: Mouse oropharyngeal bleomycin model of lung fibrosis
Type: in vivo
Conditions: dosed prophylactically at 60 mg/kg p.o.
Protocol: Example B-3: Mouse Oropharyngeal Bleomycin Model of Lung Fibrosis
Lung fibrosis is induced in C57Bl/6 male mice by administering bleomycin (0.1-4 U/kg) via oropharyngeal instillation. Mice are either pretreated with vehicle or test compound (1 day to 1 hour) orally, intraperitoneally, intravenously or subcutaneously before bleomycin installation (prophylactic dosing) or 7-14 days post bleomycin instillation (therapeutic dosing). The route and frequency of dosing are based on previously determined pharmacokinetic properties for the LOXL2 inhibitor in mouse. After bleomycin instillation animals are monitored daily for weight loss and clinical signs for 14-28 days prior to sacrifice. […] For histological examination, lung slices are stained with Masson's trichrome or Picro-Sirius red to measure cross-linked collagen as an indicator of fibrosis and an Ashcroft score of lung fibrotic and inflammatory damage determined. In addition, immunohistochemistry of fibrotic proteins such as a-smooth muscle actin can be recorded. […] After the acid hydrolysis, 25-100 μl of the supernatant is dried down, resuspended in 25 μl water and the hydroxyproline content determined by the addition of 0.5 ml Chloramine T solution (140 mg Chloramine T in 6.5 ml ddH2O+1 ml n-propanol+2.5 ml 1M sodium acetate) and incubation at room temperature for 20 min. […]

Compound: NCc1cc(=O)c2cc(Br)ccc2[nH]1 [Compound 1-3, 2-(Aminomethyl)-6-bromoquinolin-4(1H)-one]
- efficacy in mouse oropharyngeal bleomycin model of lung fibrosis: efficacious
